{"source": "patent US20080312255A1", "about": "(ASTRAZENECA AB, priority 2007, published 2008)"}
{"target": "S. aureus GyrB ATPase (Staphylococcus aureus, UniProt P0A0K8)", "sequence (P0AES4 whole entry)": "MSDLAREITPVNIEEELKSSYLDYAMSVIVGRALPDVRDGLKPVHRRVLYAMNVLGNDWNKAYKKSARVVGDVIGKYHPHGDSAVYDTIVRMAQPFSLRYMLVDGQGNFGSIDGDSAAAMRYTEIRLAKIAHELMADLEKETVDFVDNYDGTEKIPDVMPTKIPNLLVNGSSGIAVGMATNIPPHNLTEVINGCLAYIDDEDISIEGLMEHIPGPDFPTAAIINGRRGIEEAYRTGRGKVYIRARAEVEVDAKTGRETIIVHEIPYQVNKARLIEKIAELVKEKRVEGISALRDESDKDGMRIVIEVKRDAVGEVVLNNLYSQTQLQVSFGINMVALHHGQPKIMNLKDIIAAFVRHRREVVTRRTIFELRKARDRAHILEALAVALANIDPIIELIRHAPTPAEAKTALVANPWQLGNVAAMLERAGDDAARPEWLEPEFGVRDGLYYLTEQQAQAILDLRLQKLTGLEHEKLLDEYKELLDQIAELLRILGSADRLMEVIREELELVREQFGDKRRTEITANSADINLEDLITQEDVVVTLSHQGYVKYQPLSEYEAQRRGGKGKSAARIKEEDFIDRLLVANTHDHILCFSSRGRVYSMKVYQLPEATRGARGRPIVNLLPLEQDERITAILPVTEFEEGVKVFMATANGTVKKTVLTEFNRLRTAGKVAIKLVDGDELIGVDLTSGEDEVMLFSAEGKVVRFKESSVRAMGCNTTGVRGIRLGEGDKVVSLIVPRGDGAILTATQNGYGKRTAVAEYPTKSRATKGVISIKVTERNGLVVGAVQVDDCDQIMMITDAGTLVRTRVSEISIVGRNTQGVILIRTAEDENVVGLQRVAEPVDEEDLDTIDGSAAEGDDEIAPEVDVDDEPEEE", "sequence (P0A0K8 whole entry)": "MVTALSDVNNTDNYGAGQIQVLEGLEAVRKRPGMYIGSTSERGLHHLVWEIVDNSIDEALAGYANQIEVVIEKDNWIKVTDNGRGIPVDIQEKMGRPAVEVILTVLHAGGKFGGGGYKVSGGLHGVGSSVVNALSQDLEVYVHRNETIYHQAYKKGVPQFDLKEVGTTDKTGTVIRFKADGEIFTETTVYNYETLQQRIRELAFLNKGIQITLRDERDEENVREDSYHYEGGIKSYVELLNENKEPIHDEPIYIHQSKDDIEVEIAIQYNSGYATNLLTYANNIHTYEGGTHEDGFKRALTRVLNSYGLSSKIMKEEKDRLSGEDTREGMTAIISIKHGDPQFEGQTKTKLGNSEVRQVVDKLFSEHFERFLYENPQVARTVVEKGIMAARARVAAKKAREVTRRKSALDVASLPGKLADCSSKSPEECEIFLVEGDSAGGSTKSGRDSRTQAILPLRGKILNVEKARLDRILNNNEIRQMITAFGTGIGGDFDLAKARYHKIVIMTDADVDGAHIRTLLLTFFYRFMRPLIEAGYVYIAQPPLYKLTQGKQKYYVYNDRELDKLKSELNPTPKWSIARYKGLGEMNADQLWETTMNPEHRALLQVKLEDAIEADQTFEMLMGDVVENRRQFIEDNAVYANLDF", "experiment": "S. aureus GyrB ATPase inhibition (ammonium molybdate/malachite green phosphate detection)", "format": "biochemical", "details": "compound concentration of 1 μM", "how_it_was_run": "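E. coli GyrA and S. aureus GyrB (250 pM each) with sheared salmon sperm DNA and 250 μM ATP, pH 7.5 Hepes buffer. Released phosphate detected by malachite green/ammonium molybdate at 650 nm; percent inhibition at 1 μM compound unless noted, normalized to 2% DMSO (0%) and EDTA (100%) controls.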", "units": {"inhibition at 1 µM": "%"}}
{"smiles": "CCOC(=O)c1sc(N2CC[C@@H](NC(=O)c3[nH]c(C)c(Cl)c3Cl)[C@@H](OC)C2)nc1-c1cnc(C)cn1", "note": "[Example 96, ethyl 2-((3S,4R)-4-(3,4-dichloro-5-methyl-1H-pyrrole-2-carboxamido)-3-methoxypiperidin-1-yl)-4-(5-methylpyrazin-2-yl)thiazole-5-carboxylate]", "inhibition at 1 µM": 90.2}
{"smiles": "CCOC(=O)c1sc(N2CC[C@@H](NC(=O)c3[nH]c(C)c(Cl)c3Cl)[C@@H](OC)C2)nc1-c1ncccc1F", "note": "[Example 97, ethyl 2-((3S,4R)-4-(3,4-dichloro-5-methyl-1H-pyrrole-2-carboxamido)-3-methoxypiperidin-1-yl)-4-(3-fluoropyridin-2-yl)thiazole-5-carboxylate]", "inhibition at 1 µM": 91.5}
{"smiles": "CCOC(=O)c1sc(N2CC[C@@H](NC(=O)c3[nH]c(C)c(Cl)c3Cl)[C@@H](F)C2)nc1-c1cc(OC)ccn1", "note": "[Example 98, Ethyl 2-((3S,4R)-4-(3,4-dichloro-5-methyl-1H-pyrrole-2-carboxamido)-3-fluoropiperidin-1-yl)-4-(4-methoxypyridin-2-yl)thiazole-5-carboxylate]", "inhibition at 1 µM": 84.4}
{"smiles": "COC(=O)c1sc(N2CC[C@@H](NC(=O)c3[nH]c(C)c(Cl)c3Cl)[C@@H](F)C2)nc1-c1cn(C)nn1", "note": "[Example 99, methyl 2-((3S,4R)-4-(3,4-dichloro-5-methyl-1H-pyrrole-2-carboxamido)-3-fluoropiperidin-1-yl)-4-(1-methyl-1H-1,2,3-triazol-4-yl)thiazole-5-carboxylate]", "inhibition at 1 µM": 102}
{"smiles": "COC(=O)c1sc(N2CC[C@@H](NC(=O)c3[nH]c(C)c(Cl)c3Cl)[C@@H](F)C2)nc1-c1cccc(OC)n1", "note": "[Example 100, methyl 2-((3S,4R)-4-(3,4-dichloro-5-methyl-1H-pyrrole-2-carboxamido)-3-fluoropiperidin-1-yl)-4-(6-methoxypyridin-2-yl)thiazole-5-carboxylate]", "inhibition at 1 µM": 112}
{"smiles": "CCOC(=O)c1sc(N2CC[C@@H](NC(=O)c3[nH]c(C)c(Cl)c3Cl)[C@@H](F)C2)nc1-c1ncccc1F", "note": "[Example 102, ethyl 2-((3S,4R)-4-(3,4-dichloro-5-methyl-1H-pyrrole-2-carboxamido)-3-fluoropiperidin-1-yl)-4-(3-fluoropyridin-2-yl)thiazole-5-carboxylate]", "inhibition at 1 µM": 81.4}
{"smiles": "COC(=O)c1sc(N2CC[C@@H](NC(=O)c3[nH]c(C)c(Cl)c3C#N)[C@@H](OC)C2)nc1-c1cn(C)nn1", "note": "[Example 103, methyl 2-((3S,4R)-4-(4-chloro-3-cyano-5-methyl-1H-pyrrole-2-carboxamido)-3-methoxypiperidin-1-yl)-4-(1-methyl-1H-1,2,3-triazol-4-yl)thiazole-5-carboxylate]", "inhibition at 1 µM": 85.7}
{"smiles": "COC(=O)c1sc(N2CC[C@@H](NC(=O)c3[nH]c(C)c(Cl)c3C#N)[C@@H](OC)C2)nc1-c1ncnn1C", "note": "[Example 104, methyl 2-((3S,4R)-4-(4-chloro-3-cyano-5-methyl-1H-pyrrole-2-carboxamido)-3-methoxypiperidin-1-yl)-4-(1-methyl-1H-1,2,4-triazol-5-yl)thiazole-5-carboxylate]", "inhibition at 1 µM": 86.4}
{"smiles": "CCOC(=O)c1sc(N2CC[C@@H](NC(=O)c3[nH]c(C)c(Cl)c3C#N)[C@@H](OC)C2)nc1-c1ncccn1", "note": "[Example 105, ethyl 2-((3S,4R)-4-(4-chloro-3-cyano-5-methyl-1H-pyrrole-2-carboxamido)-3-methoxypiperidin-1-yl)-4-(pyrimidin-2-yl)thiazole-5-carboxylate]", "inhibition at 1 µM": 103}
{"smiles": "CCOC(=O)c1sc(N2CC[C@@H](NC(=O)c3[nH]c(C)c(Cl)c3C#N)[C@@H](OC)C2)nc1-c1ncccc1F", "note": "[Example 106, ethyl 2-((3S,4R)-4-(4-chloro-3-cyano-5-methyl-1H-pyrrole-2-carboxamido)-3-methoxypiperidin-1-yl)-4-(3-fluoropyridin-2-yl)thiazole-5-carboxylate]", "inhibition at 1 µM": 101}
{"smiles": "CCOC(=O)c1sc(N2CC[C@@H](NC(=O)c3[nH]c(C)c(Cl)c3C#N)[C@@H](OC)C2)nc1-c1cn(C)cn1", "note": "[Example 108, ethyl 2-((3S,4R)-4-(4-chloro-3-cyano-5-methyl-1H-pyrrole-2-carboxamido)-3-methoxypiperidin-1-yl)-4-(1-methyl-1H-imidazol-4-yl)thiazole-5-carboxylate]", "inhibition at 1 µM": 86.6}
{"smiles": "CO[C@H]1CN(c2nc(-c3cn(C)nn3)c(C(=O)O)s2)CC[C@H]1NC(=O)c1[nH]c(C)c(Cl)c1Cl", "note": "[Example 109, 2-((3S,4R)-4-(3,4-dichloro-5-methyl-1H-pyrrole-2-carboxamido)-3-methoxypiperidin-1-yl)-4-(1-methyl-1H-1,2,3-triazol-4-yl)thiazole-5-carboxylic acid]", "inhibition at 1 µM": 101}
{"smiles": "COc1cccc(-c2nc(N3CC[C@@H](NC(=O)c4[nH]c(C)c(Cl)c4Cl)[C@@H](OC)C3)sc2C(=O)O)n1", "note": "[Example 111, 2-((3S,4R)-4-(3,4-dichloro-5-methyl-1H-pyrrole-2-carboxamido)-3-methoxypiperidin-1-yl)-4-(6-methoxypyridin-2-yl)thiazole-5-carboxylic acid]", "inhibition at 1 µM": 105}
{"smiles": "COc1ccnc(-c2nc(N3CC[C@@H](NC(=O)c4[nH]c(C)c(Cl)c4Cl)[C@@H](OC)C3)sc2C(=O)O)c1", "note": "[Example 112, 2-((3S,4R)-4-(3,4-dichloro-5-methyl-1H-pyrrole-2-carboxamido)-3-methoxypiperidin-1-yl)-4-(4-methoxypyridin-2-yl)thiazole-5-carboxylic acid]", "inhibition at 1 µM": 81.1}
{"smiles": "CO[C@H]1CN(c2nc(-c3cnc(C)cn3)c(C(=O)O)s2)CC[C@H]1NC(=O)c1[nH]c(C)c(Cl)c1Cl", "note": "[Example 113, 2-((3S,4R)-4-(3,4-dichloro-5-methyl-1H-pyrrole-2-carboxamido)-3-methoxypiperidin-1-yl)-4-(5-methylpyrazin-2-yl)thiazole-5-carboxylic acid]", "inhibition at 1 µM": 92.9}
{"smiles": "CO[C@H]1CN(c2nc(-c3ncccc3F)c(C(=O)O)s2)CC[C@H]1NC(=O)c1[nH]c(C)c(Cl)c1Cl", "note": "[Example 114, 2-((3S,4R)-4-(3,4-dichloro-5-methyl-1H-pyrrole-2-carboxamido)-3-methoxypiperidin-1-yl)-4-(3-fluoropyridin-2-yl)thiazole-5-carboxylic acid]", "inhibition at 1 µM": 82.9}
{"smiles": "Cc1[nH]c(C(=O)N[C@@H]2CCN(c3nc(-c4cn(C)nn4)c(C(=O)O)s3)C[C@@H]2F)c(Cl)c1Cl", "note": "[Example 116, 2-((3S,4R)-4-(3,4-dichloro-5-methyl-1H-pyrrole-2-carboxamido)-3-fluoropiperidin-1-yl)-4-(1-methyl-1H-1,2,3-triazol-4-yl)thiazole-5-carboxylic acid]", "inhibition at 1 µM": 101}
{"smiles": "COc1cccc(-c2nc(N3CC[C@@H](NC(=O)c4[nH]c(C)c(Cl)c4Cl)[C@@H](F)C3)sc2C(=O)O)n1", "note": "[Example 117, 2-((3S,4R)-4-(3,4-dichloro-5-methyl-1H-pyrrole-2-carboxamido)-3-fluoropiperidin-1-yl)-4-(6-methoxypyridin-2-yl)thiazole-5-carboxylic acid]", "inhibition at 1 µM": 108}
{"smiles": "Cc1cnc(-c2nc(N3CC[C@@H](NC(=O)c4[nH]c(C)c(Cl)c4Cl)[C@@H](F)C3)sc2C(=O)O)cn1", "note": "[Example 118, 2-((3S,4R)-4-(3,4-dichloro-5-methyl-1H-pyrrole-2-carboxamido)-3-fluoropiperidin-1-yl)-4-(5-methylpyrazin-2-yl)thiazole-5-carboxylic acid]", "inhibition at 1 µM": 92.1}
{"smiles": "Cc1[nH]c(C(=O)N[C@@H]2CCN(c3nc(-c4ncccc4F)c(C(=O)O)s3)C[C@@H]2F)c(Cl)c1Cl", "note": "[Example 119, 2-((3S,4R)-4-(3,4-dichloro-5-methyl-1H-pyrrole-2-carboxamido)-3-fluoropiperidin-1-yl)-4-(3-fluoropyridin-2-yl)thiazole-5-carboxylic acid]", "inhibition at 1 µM": 79.4}
{"smiles": "CO[C@H]1CN(c2nc(-c3cn(C)nn3)c(C(=O)O)s2)CC[C@H]1NC(=O)c1[nH]c(C)c(Cl)c1C#N", "note": "[Example 120, 2-((3S,4R)-4-(4-chloro-3-cyano-5-methyl-1H-pyrrole-2-carboxamido)-3-methoxypiperidin-1-yl)-4-(1-methyl-1H-1,2,3-triazol-4-yl)thiazole-5-carboxylic acid]", "inhibition at 1 µM": 104}
{"smiles": "CO[C@H]1CN(c2nc(-c3ncnn3C)c(C(=O)O)s2)CC[C@H]1NC(=O)c1[nH]c(C)c(Cl)c1C#N", "note": "[Example 121, 2-((3S,4R)-4-(4-chloro-3-cyano-5-methyl-1H-pyrrole-2-carboxamido)-3-methoxypiperidin-1-yl)-4-(1-methyl-1H-1,2,4-triazol-5-yl)thiazole-5-carboxylic acid]", "inhibition at 1 µM": 103}
{"smiles": "CO[C@H]1CN(c2nc(-c3ncccn3)c(C(=O)O)s2)CC[C@H]1NC(=O)c1[nH]c(C)c(Cl)c1C#N", "note": "[Example 122, 2-((3S,4R)-4-(4-chloro-3-cyano-5-methyl-1H-pyrrole-2-carboxamido)-3-methoxypiperidin-1-yl)-4-(pyrimidin-2-yl)thiazole-5-carboxylic acid]", "inhibition at 1 µM": 103}
{"smiles": "CO[C@H]1CN(c2nc(-c3ncccc3F)c(C(=O)O)s2)CC[C@H]1NC(=O)c1[nH]c(C)c(Cl)c1C#N", "note": "[Example 123, 2-((3S,4R)-4-(4-chloro-3-cyano-5-methyl-1H-pyrrole-2-carboxamido)-3-methoxypiperidin-1-yl)-4-(3-fluoropyridin-2-yl)thiazole-5-carboxylic acid]", "inhibition at 1 µM": 104}
{"smiles": "CO[C@H]1CN(c2nc(-c3cnc(C)cn3)c(C(=O)O)s2)CC[C@H]1NC(=O)c1[nH]c(C)c(Cl)c1C#N", "note": "[Example 124, 2-((3S,4R)-4-(4-chloro-3-cyano-5-methyl-1H-pyrrole-2-carboxamido)-3-methoxypiperidin-1-yl)-4-(5-methylpyrazin-2-yl)thiazole-5-carboxylic acid]", "inhibition at 1 µM": 104}
{"smiles": "CO[C@H]1CN(c2nc(-c3cn(C)cn3)c(C(=O)O)s2)CC[C@H]1NC(=O)c1[nH]c(C)c(Cl)c1C#N", "note": "[Example 125, 2-((3S,4R)-4-(4-chloro-3-cyano-5-methyl-1H-pyrrole-2-carboxamido)-3-methoxypiperidin-1-yl)-4-(1-methyl-1H-imidazol-4-yl)thiazole-5-carboxylic acid]", "inhibition at 1 µM": 103}
